# The source made the active and inactive calls. No cut-off for these calls is given here.
# Tests used:
# [1] = molecular target: T1, Scaffold protein ILK (Homo sapiens) (UniProt Q13418); assay: Inhibition of ILK Lys1 labeling site in human Huh-7 cells at 1 uM by KiNativ Profiling analysis relative to control; type: cell-based
# T1 sequence (whole entry): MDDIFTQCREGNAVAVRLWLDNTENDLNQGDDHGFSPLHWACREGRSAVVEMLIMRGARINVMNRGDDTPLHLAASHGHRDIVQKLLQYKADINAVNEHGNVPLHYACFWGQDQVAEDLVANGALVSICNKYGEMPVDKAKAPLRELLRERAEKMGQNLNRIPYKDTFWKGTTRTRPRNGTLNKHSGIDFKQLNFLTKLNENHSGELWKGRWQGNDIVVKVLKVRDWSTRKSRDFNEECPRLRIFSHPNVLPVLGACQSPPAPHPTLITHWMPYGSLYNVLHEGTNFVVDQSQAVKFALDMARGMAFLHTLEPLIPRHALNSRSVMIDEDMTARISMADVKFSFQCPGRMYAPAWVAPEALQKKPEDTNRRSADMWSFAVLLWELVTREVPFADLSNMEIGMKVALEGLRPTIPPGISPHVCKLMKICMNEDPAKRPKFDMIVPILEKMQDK
# [2] = molecular target: Calcium/calmodulin-dependent protein kinase type 1G (Homo sapiens) (UniProt Q96NX5); assay: Inhibition of CAMK1G (unknown origin) at 10 uM by Ambit Kinomescan binding assay relative to control
# [3] = molecular target: Dual specificity protein kinase CLK2 (Homo sapiens) (UniProt P49760); assay: Inhibition of CLK2 (unknown origin) at 10 uM by Ambit Kinomescan binding assay
# [4] = molecular target: Receptor tyrosine-protein kinase erbB-2 (Homo sapiens) (UniProt P04626); assay: Inhibition of ERBB2 (unknown origin) at 10 uM by Ambit Kinomescan binding assay
# [5] = system: Mast/stem cell growth factor receptor Kit (Homo sapiens), P10721 [V559D,V654A]; assay: Inhibition of KIT V559D/V654A double mutant (unknown origin) at 10 uM by Ambit Kinomescan binding assay relative to control
# [6] = molecular target: AMPK alpha1/alpha2 (Homo sapiens) (UniProt P54646+Q13131); assay: Inhibition of AMPK alpha1/2 K2 labeling site in human Huh-7 cells at 10 uM by KiNativ Profiling analysis relative to control; type: cell-based
# [7] = molecular target: DNA-dependent protein kinase catalytic subunit (Homo sapiens) (UniProt P78527); assay: Inhibition of PRKDC ATP labeling site harbouring KGGSWIQEINVAEKNWYPR in human Huh-7 cells at 10 uM by KiNativ Profiling analysis relative to control; type: cell-based
# Sequence of DNA-dependent protein kinase catalytic subunit (Homo sapiens) (P78527 whole entry): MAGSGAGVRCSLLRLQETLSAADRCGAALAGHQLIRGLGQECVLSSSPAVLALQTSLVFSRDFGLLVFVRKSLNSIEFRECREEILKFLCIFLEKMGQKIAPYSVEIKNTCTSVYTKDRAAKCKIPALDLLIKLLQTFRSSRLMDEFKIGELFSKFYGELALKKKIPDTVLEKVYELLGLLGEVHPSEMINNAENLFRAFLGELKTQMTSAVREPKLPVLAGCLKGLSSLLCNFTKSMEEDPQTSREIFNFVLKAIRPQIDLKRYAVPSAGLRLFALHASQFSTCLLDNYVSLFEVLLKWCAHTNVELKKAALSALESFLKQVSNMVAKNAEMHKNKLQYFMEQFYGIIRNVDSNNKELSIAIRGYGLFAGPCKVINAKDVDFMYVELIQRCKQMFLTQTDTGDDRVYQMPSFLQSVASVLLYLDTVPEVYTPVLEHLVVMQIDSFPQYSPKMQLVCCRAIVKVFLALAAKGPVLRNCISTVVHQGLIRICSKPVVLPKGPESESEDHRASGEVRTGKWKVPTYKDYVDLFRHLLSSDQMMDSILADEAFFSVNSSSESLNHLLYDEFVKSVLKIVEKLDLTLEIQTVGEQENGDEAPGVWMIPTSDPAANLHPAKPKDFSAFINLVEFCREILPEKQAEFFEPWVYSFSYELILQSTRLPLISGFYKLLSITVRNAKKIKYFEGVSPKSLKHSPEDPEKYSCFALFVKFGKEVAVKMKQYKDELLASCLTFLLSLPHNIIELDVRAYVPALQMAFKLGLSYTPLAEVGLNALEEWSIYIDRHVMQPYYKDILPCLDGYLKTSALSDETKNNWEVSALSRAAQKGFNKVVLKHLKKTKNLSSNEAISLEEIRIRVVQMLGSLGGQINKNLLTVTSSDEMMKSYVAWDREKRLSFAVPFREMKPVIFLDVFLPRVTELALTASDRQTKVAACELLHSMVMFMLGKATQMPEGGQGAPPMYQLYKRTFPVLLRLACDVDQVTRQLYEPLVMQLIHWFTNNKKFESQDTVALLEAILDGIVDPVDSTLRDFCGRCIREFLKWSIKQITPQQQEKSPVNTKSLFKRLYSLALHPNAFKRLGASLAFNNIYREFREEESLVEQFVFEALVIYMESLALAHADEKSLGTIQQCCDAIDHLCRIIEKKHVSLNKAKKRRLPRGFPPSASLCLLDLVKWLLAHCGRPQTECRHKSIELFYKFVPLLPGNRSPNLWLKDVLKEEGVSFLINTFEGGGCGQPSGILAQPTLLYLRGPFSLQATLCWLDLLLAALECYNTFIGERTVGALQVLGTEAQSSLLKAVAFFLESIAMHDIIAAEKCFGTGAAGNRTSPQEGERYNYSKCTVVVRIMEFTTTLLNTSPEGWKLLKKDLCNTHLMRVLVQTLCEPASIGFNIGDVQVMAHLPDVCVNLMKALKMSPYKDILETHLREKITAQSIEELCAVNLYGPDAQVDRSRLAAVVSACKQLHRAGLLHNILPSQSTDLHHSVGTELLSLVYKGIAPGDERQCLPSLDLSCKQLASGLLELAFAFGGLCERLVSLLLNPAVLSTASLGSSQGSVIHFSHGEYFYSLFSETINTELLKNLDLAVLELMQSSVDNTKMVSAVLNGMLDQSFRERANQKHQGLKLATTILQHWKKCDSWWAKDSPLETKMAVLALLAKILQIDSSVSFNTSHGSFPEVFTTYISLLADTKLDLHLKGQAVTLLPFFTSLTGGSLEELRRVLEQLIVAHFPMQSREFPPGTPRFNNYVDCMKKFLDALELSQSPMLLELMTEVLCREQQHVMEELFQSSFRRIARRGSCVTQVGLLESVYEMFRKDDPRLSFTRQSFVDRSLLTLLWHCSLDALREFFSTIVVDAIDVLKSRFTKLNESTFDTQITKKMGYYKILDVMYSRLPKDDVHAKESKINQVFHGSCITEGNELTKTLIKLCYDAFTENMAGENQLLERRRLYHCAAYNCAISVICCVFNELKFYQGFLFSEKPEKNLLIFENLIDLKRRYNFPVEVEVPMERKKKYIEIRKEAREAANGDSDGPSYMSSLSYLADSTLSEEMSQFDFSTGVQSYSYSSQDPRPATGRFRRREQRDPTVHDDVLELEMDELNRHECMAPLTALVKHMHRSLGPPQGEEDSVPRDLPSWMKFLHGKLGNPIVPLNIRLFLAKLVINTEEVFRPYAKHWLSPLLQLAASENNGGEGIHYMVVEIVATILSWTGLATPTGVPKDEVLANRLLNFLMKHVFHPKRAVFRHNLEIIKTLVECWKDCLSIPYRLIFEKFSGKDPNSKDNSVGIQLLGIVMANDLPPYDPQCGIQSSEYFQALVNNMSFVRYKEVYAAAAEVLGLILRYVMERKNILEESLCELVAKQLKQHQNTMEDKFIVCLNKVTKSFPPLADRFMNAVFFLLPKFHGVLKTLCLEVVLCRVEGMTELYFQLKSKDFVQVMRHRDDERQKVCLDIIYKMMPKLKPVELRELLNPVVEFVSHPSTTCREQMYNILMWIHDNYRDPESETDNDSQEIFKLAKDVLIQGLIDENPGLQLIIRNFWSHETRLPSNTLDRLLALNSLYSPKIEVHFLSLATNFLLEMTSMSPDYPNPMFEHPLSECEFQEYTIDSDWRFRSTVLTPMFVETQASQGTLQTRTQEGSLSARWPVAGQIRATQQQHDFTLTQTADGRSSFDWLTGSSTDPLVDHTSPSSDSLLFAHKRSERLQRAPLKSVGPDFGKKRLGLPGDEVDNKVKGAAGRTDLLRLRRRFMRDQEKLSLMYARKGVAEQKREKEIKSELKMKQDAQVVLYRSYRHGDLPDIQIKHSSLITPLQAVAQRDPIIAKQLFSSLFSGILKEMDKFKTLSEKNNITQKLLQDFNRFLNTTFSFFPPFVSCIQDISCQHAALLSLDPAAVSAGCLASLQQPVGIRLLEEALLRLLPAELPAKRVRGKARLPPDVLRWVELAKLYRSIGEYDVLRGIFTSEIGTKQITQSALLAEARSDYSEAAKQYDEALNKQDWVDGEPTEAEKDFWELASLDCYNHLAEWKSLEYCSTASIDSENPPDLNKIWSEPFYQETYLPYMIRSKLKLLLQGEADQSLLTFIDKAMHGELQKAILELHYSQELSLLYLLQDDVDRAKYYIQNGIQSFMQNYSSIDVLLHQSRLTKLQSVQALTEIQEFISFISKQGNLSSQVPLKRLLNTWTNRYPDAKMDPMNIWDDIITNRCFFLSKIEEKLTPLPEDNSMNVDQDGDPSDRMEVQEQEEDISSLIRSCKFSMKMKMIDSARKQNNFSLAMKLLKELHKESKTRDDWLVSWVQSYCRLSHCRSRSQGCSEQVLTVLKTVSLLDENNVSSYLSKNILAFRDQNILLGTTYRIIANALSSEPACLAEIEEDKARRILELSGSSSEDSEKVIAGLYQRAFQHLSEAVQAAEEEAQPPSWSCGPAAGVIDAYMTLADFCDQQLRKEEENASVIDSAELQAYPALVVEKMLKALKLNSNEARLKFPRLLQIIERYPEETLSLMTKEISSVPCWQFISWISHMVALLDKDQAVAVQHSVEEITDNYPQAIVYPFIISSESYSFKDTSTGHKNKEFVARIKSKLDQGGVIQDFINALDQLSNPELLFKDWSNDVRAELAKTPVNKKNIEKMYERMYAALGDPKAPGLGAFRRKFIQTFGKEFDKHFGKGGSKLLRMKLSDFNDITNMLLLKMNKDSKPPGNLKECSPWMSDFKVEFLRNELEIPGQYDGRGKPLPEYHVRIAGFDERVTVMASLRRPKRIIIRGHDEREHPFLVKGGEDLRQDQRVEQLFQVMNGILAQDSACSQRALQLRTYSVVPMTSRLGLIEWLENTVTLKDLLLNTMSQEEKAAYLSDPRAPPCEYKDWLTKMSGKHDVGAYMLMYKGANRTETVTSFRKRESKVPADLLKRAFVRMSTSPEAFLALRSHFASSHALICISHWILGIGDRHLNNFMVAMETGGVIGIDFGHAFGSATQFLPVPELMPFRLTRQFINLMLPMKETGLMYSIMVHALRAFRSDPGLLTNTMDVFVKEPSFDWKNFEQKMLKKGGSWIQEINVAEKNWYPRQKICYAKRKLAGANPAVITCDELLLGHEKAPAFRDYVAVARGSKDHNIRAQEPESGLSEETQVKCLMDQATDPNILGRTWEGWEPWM
# [8] = molecular target: Wee1-like protein kinase (Homo sapiens) (UniProt P30291); assay: Inhibition of Wee1 K2 labeling site in human Huh-7 cells at 10 uM by KiNativ Profiling analysis relative to control; type: cell-based
# [9] = system: Epidermal growth factor receptor (Homo sapiens), P00533 [UNDEFINED MUTATION]; details: dose 1.0 µM
# [10] = molecular target: Receptor-interacting serine/threonine-protein kinase 2 (Homo sapiens) (UniProt O43353); assay: Inhibition of RIPK2 (unknown origin) at 1 uM by Ambit Kinomescan binding assay relative to control
# [11] = molecular target: Calcium/calmodulin-dependent protein kinase type II subunit gamma (Homo sapiens) (UniProt Q13555); assay: Inhibition of CaMK2g Lys1 labeling site harbouring KTSTQEYAAKIINTKK in human A-375 cells at 0.5 uM by KiNativ Profiling analysis relative to control; type: cell-based
# [12] = molecular target: T2, Serine/threonine-protein kinase STK11 (Homo sapiens) (UniProt Q15831); assay: Inhibition of LKB1 Lys2 labeling site in human A-375 cells at 0.5 uM by KiNativ Profiling analysis relative to control; type: cell-based
# T2 sequence (whole entry): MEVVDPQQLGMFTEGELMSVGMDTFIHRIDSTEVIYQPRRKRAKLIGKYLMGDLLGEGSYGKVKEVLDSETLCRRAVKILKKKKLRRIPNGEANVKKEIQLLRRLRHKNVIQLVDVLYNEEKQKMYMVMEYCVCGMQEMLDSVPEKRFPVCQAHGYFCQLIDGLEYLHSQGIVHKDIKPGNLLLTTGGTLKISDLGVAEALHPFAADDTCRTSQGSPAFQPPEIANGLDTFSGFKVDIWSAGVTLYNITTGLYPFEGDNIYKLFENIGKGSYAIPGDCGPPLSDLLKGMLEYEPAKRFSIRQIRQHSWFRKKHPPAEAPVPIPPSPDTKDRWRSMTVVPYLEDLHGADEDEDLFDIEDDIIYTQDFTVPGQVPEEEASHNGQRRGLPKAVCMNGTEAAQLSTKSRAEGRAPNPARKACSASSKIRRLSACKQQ
# [13] = molecular target: Hormonally up-regulated neu tumor-associated kinase (Homo sapiens) (UniProt P57058); assay: Inhibition of HUNK (unknown origin) at 1 uM by Ambit Kinomescan binding assay relative to control; values are per cent of control
# Sequence of Hormonally up-regulated neu tumor-associated kinase (Homo sapiens) (P57058 whole entry): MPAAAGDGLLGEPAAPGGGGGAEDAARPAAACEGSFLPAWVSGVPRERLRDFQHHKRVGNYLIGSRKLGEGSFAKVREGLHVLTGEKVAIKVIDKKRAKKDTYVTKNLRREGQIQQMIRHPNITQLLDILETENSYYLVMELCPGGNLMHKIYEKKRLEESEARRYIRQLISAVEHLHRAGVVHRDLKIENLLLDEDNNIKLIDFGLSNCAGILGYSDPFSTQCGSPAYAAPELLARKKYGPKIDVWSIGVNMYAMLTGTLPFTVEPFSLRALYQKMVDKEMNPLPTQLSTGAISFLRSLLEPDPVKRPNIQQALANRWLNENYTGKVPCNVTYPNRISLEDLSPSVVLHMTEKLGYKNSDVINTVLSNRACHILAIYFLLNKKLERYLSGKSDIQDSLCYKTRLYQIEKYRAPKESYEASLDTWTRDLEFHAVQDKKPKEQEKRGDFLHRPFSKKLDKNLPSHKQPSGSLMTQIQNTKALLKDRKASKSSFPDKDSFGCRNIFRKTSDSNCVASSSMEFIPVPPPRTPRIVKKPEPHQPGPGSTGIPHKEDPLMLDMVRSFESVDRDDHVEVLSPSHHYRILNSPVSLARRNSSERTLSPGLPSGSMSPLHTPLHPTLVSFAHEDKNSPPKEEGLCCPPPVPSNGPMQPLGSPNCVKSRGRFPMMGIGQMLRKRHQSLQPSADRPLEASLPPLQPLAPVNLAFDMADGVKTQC
# [14] = molecular target: T3, Serine/threonine-protein kinase TAO3 (Homo sapiens) (UniProt Q9H2K8); assay: Inhibition of TAOK3 (unknown origin) at 1 uM by Ambit Kinomescan binding assay relative to control; values are per cent of control
# T3 sequence (whole entry): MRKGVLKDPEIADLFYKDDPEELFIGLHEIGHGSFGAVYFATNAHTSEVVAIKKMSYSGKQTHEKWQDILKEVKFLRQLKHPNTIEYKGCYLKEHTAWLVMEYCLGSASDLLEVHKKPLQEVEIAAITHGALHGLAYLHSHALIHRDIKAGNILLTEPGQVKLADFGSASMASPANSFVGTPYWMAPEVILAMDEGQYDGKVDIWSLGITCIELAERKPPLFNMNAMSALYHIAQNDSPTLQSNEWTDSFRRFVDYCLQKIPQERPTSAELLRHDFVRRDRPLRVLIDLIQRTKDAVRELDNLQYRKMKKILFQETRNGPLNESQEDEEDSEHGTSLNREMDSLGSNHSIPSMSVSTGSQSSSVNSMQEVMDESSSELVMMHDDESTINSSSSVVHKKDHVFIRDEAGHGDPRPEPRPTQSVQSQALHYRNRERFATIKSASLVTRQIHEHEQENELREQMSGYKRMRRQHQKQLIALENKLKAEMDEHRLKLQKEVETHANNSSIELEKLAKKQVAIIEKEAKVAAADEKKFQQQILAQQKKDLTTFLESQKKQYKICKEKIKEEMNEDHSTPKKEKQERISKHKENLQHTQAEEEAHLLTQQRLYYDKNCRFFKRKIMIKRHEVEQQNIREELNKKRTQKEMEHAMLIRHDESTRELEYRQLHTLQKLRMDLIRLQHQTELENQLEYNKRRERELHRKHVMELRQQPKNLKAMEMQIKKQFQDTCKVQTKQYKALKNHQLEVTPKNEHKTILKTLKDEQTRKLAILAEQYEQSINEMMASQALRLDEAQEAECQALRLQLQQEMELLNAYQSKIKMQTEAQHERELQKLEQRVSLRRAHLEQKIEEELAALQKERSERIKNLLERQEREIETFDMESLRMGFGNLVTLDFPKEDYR
smiles,measurement,setting,value
CNc1cc(Oc2cc(C(=O)Nc3cc(N4CCN(C)CC4)cc(C(F)(F)F)c3)ccc2C)ncn1,inhibition,[1],-6.7%
CCN1CCN(Cc2ccc(NC(=O)c3ccc(C)c(Oc4ccnc5[nH]ccc45)c3)cc2C(F)(F)F)CC1,inhibition,[2],20%
same,inhibition,[3],inactive
same,inhibition,[4],inactive
same,inhibition,[5],2.7%
same,inhibition,[6],6.2%
same,inhibition,[7],1.9%
same,inhibition,[8],-2.8%
CCN1CCN(Cc2ccc(NC(=O)c3ccc(C)c(/C=C/c4cnc5[nH]ccc5c4OC)c3)cc2C(F)(F)F)CC1,inhibition,[9],0.5%
same,inhibition,[10],4.5%
same,inhibition,[11],13%
same,inhibition,[12],32.2%
same,residual activity,[13],57%
same,percent of control,[14],0.75%
